Assay results from patent US8481732B2 (Incyte Corporation, priority 2009, dated 2013).

biological target: T1, histamine H4 receptor (Homo sapiens, UniProt Q9H3N8); test: H4 Membrane Binding Assay (3H-Histamine displacement); conditions: membranes of recombinant HEK293SFM cells, 10 nM 3H-Histamine, 1.5 hr at room temperature
T1 construct: expressed in transfected cells; host or cells: HEK293SFM cells (membrane preparation)
Outline: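 Membranes from HEK293SFM cells expressing human H4 (also human H1–H3, mouse H4), prepared in ice-cold 50 mM Tris-HCl pH 7.5. [3H]-histamine displacement, nonspecific binding defined with 1000× unlabeled ligand. Bound radioactivity separated on PEI-treated GF/B filters and measured by liquid scintillation counting.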

T1 sequence (Q9H3N8 whole entry): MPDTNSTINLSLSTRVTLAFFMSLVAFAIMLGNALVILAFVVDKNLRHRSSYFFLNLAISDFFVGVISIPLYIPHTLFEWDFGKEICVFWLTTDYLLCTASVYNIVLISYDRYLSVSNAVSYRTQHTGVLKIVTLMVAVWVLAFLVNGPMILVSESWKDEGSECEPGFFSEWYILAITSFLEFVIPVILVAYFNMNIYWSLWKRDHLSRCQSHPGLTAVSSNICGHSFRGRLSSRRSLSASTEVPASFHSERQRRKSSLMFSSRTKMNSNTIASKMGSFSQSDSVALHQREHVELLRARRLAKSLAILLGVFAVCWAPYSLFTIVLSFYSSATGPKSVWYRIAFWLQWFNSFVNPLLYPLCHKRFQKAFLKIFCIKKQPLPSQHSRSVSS

SMILES	IC50
CC(Oc1cccc(CC(NC(=O)c2ccc3c(N4CCN(C)CC4)nc(N)nc3c2)C(=O)N(C)C)c1)c1cccc(C(F)(F)F)c1 (centres unmarked) [Example 176, 2-Amino-N-[2-(dimethylamino)-2-oxo-1-(3-{1-[3-(trifluoromethyl)phenyl]ethoxy}benzyl)ethyl]-4-(4-methylpiperazin-1-yl)quinazoline-7-carboxamide]	0.051 µM
CN1CCN(c2nc(N)nc3cc(C(=O)Nc4ccc(Oc5ccccc5)cc4)ccc23)CC1 [Example 35, 2-Amino-4-(4-methylpiperazin-1-yl)-N-(4-phenoxyphenyl)quinazoline-7-carboxamide]	0.287 µM
CC(NC(=O)c1ccc2c(N3CCN(C)CC3)nc(N)nc2c1)c1cccc(Oc2ccc(Cl)cc2C#N)c1 (centres unmarked) [Example 197, 2-Amino-N-{1-[3-(4-chloro-2-cyanophenoxy)phenyl]ethyl}-4-(4-methylpiperazin-1-yl)quinazoline-7-carboxamide]	0.0071 µM
CC(NC(=O)c1ccc2c(N3CCN(C)CC3)nc(N)nc2c1)c1ccc(Oc2ccccc2)cc1 (centres unmarked) [Example 29, 2-Amino-4-(4-methylpiperazin-1-yl)-N-[1-(4-henoxyphenyl)ethyl]quinazoline-7-carboxamide]	0.157 µM
CN1CCN(c2cc(-c3ccc4c(c3)CN(C(=O)CC3CC3)CC4)nc(N)n2)CC1 [Example 106, 4-[2-(Cyclopropylacetyl)-1,2,3,4-tetrahydroisoquinolin-7-yl]-6-(4-methylpiperazin-1-yl)pyrimidin-2-amine]	0.069 µM
CN1CCN(c2cc(-c3ccc4c(c3)CN(C(=O)OC3CCN(C(=O)OC5CCCC5)CC3)CC4)nc(N)n2)CC1 [Example 69, 1-[(Cyclopentyloxy)carbonyl]piperidin-4-yl 7-[2-amino-6-(4-methylpiperazin-1-yl)pyrimidin-4-yl]-3,4-dihydroisoquinoline-2(1H)-carboxylate]	0.033 µM
CC(C)CC(=O)N1CCc2ccc(-c3cc(N4CCN(C)CC4)nc(N)n3)cc2C1 [Example 100, 4-[2-(3-Methylbutanoyl)-1,2,3,4-tetrahydroisoquinolin-7-yl]-6-(4-methylpiperazin-1-yl)pyrimidin-2-amine]	0.045 µM
COC(=O)NC(C)CC(=O)N1CCc2ccc(-c3cc(N4CCN(C)CC4)nc(N)n3)cc2C1 (centres unmarked) [Example 113, Methyl{3-[7-[2-amino-6-(4-methylpiperazin-1-yl)pyrimidin-4-yl]-3,4-dihydroisoquinolin-2(1H)-yl]-1-methyl-3-oxopropyl}carbamate]	0.147 µM
CN1CCN(c2nc(N)nc3cc(C(=O)NC(Cc4cccc(OCc5ccc(OC(F)(F)F)cc5)c4)C(=O)N(C)C)ccc23)CC1 (centres unmarked) [Example 177, 2-Amino-N-[2-(dimethylamino)-2-oxo-1-(3-{[4-(trifluoromethoxy)benzyl]oxy}benzyl)ethyl]-4-(4-methylpiperazin-1-yl)quinazoline-7-carboxamide]	0.056 µM
COc1cccc(Oc2cccc(CNC(=O)c3ccc4c(N5CCN(C)CC5)nc(N)nc4c3)c2)c1C#N [Example 190, 2-Amino-N-[3-(2-cyano-3-methoxyphenoxy)benzyl]-4-(4-methylpiperazin-1-yl)quinazoline-7-carboxamide]	0.011 µM
CN1CCN(c2nc(N)nc3cc(C(=O)NC(C#N)c4ccccc4)ccc23)CC1 (centres unmarked) [Example 129, 2-Amino-N-[cyano(phenyl)methyl]-4-(4-methylpiperazin-1-yl)quinazoline-7-carboxamide]	0.156 µM
CC(C)OC(=O)N1CCC(OC(=O)N2CCc3ccc(-c4cc(N5CCN(C)CC5)nc(N)n4)cc3C2)CC1 [Example 68, 1-(Isopropoxycarbonyl)piperidin-4-yl 7-[2-amino-6-(4-methylpiperazin-1-yl)pyrimidin-4-yl]-3,4-dihydroisoquinoline-2(1H)-carboxylate]	0.038 µM
CN1CCN(c2cc(-c3ccc4c(c3)CN(C(=O)Cc3ccc(Cl)nc3)CC4)nc(N)n2)CC1 [Example 108, 4-{2-[(6-Chloropyridin-3-yl)acetyl]-1,2,3,4-tetrahydroisoquinolin-7-yl}-6-(4-methylpiperazin-1-yl)pyrimidin-2-amine]	0.033 µM
CN1CCN(c2nc(N)nc3cc(C(=O)NC(Cc4ccc5c(c4)OC(F)(F)O5)C(=O)N(C)C)ccc23)CC1 (single isomer, unassigned) [Example 145A]	0.519 µM
CN1CCN(c2cc(-c3ccc4c(c3)CN(C(=O)N[C@@H]3CCCC[C@@H]3OCC3CC3)CC4)nc(N)n2)CC1 (relative stereo) [Example 86]	0.049 µM
CN1CCN(c2nc(N)nc3cc(C(=O)N[C@@H](Cc4ccc(-c5cccs5)cc4)C(=O)N(C)C)ccc23)CC1 [Example 148, 2-Amino-N-{(1S)-2-(dimethylamino)-2-oxo-1-[4-(2-thienyl)benzyl]ethyl}-4-(4-methylpiperazin-1-yl)quinazoline-7-carboxamide]	0.018 µM

SMILES	IC50
CN1CCN(c2cc(-c3ccc4c(c3)CN(S(=O)(=O)c3ccccc3)CC4)nc(N)n2)CC1 [Example 4, 4-(4-Methylpiperazin-1-yl)-6-[2-(phenylsulfonyl)-1,2,3,4-tetrahydroisoquinolin-7-yl]pyrimidin-2-amine]	0.267 µM
COc1ccc(C#N)c(Oc2cccc(CC(NC(=O)c3ccc4c(N5CCN(C)CC5)nc(N)nc4c3)C(=O)N(C)C)c2)c1 (centres unmarked) [Example 170, 2-Amino-N-[1-[3-(2-cyano-5-methoxyphenoxy)benzyl]-2-(dimethylamino)-2-oxoethyl]-4-(4-methylpiperazin-1-yl)quinazoline-7-carboxamide]	0.023 µM
CO[C@H]1Cc2ccccc2[C@H]1NC(=O)N1CCc2ccc(-c3cc(N4CCN(C)CC4)nc(N)n3)cc2C1 [Example 58, 7-[2-Amino-6-(4-methylpiperazin-1-yl)pyrimidin-4-yl]-N-[(1R,2S)-2-methoxy-2,3-dihydro-1H-inden-1-yl]-3,4-dihydroisoquinoline-2(1H)-carboxamide]	0.165 µM
CN1CCN(c2nc(N)nc3cc(C(=O)NC4CCCc5ccc(OCc6cccc(C#N)c6)cc54)ccc23)CC1 (centres unmarked) [Example 202, 2-Amino-N-(7-(3-cyanobenzyloxy)-1,2,3,4-tetrahydronaphthalen-1-yl)-4-(4-methylpiperazin-1-yl)quinazoline-7-carboxamide]	0.0092 µM
CC(NC(=O)c1ccc2c(N3CCN(C)CC3)nc(N)nc2c1)c1ccccc1 (centres unmarked) [Example 24, 2-Amino-4-(4-methylpiperazin-1-yl)-N-(1-phenylethyl)quinazoline-7-carboxamide]	0.565 µM
CN1CCN(c2cc(-c3ccc4c(c3)CN(C(=O)NC3CCC(C(F)(F)F)CC3)CC4)nc(N)n2)CC1 (centres unmarked) [Example 64, 7-[2-Amino-6-(4-methylpiperazin-1-yl)pyrimidin-4-yl]-N-[4-(trifluoromethyl)cyclohexyl]-3,4-dihydroisoquinoline-2(1H)-carboxamide]	0.043 µM
CC(NC(=O)c1ccc2c(N3CCN(C)CC3)nc(N)nc2c1)c1ccc(Br)cc1 (centres unmarked) [Example 31, 2-Amino-N-[1-(4-bromophenyl)ethyl]-4-(4-methylpiperazin-1-yl)quinazoline-7-carboxamide]	0.355 µM
CN1CCN(c2cc(-c3ccc4c(c3)CN(C(=O)Nc3nc5ccccc5s3)CC4)nc(N)n2)CC1 [Example 90, 7-[2-Amino-6-(4-methylpiperazin-1-yl)pyrimidin-4-yl]-N-1,3-benzothiazol-2-yl-3,4-dihydroisoquinoline-2(1H)-carboxamide]	0.143 µM
CN1CCN(c2nc(N)nc3cc(C(=O)N[C@@H](Cc4ccc(-c5ccccc5)cc4)C(=O)N(C)C)ccc23)CC1 [Example 139, 2-Amino-N-[(1S)-1-(biphenyl-4-ylmethyl)-2-(dimethylamino)-2-oxoethyl]-4-(4-methylpiperazin-1-yl)quinazoline-7-carboxamide]	0.025 µM
CN1CCN(c2cc(-c3ccc4c(c3)CN(C(=O)C(F)(F)c3ccccc3)CC4)nc(N)n2)CC1 [Example 61, 4-{2-[Difluoro(phenyl)acetyl]-1,2,3,4-tetrahydroisoquinolin-7-yl}-6-(4-methylpiperazin-1-yl)pyrimidin-2-amine]	0.07 µM
CN1CCN(c2cc(-c3ccc4c(c3)CN(C(=O)Cc3ccc(C#N)cc3)CC4)nc(N)n2)CC1 [Example 107, 4-{2-[7-[2-Amino-6-(4-methylpiperazin-1-yl)pyrimidin-4-yl]-3,4-dihydroisoquinolin-2(1H)-yl]-2-oxoethyl}benzonitrile]	0.034 µM
CN1CCN(c2nc(N)nc3cc(C(=O)NC(Cc4cccc(Oc5ccc(Cl)cc5C#N)c4)C(=O)N(C)C)ccc23)CC1 (centres unmarked) [Example 172, 2-Amino-N-[1-[3-(4-chloro-2-cyanophenoxy)benzyl]-2-(dimethylamino)-2-oxoethyl]-4-(4-methylpiperazin-1-yl)quinazoline-7-carboxamide]	0.026 µM
CN1CCN(c2cc(-c3ccc4c(c3)CN(C(=O)N3CCC(c5ccccc5)CC3)CC4)nc(N)n2)CC1 [Example 103, 4-(4-Methylpiperazin-1-yl)-6-{2-[(4-phenylpiperidin-1-yl)carbonyl]-1,2,3,4-tetrahydroisoquinolin-7-yl}pyrimidin-2-amine]	0.084 µM
CNC(=O)c1ccc(N2CCc3ccc(-c4cc(N5CCN(C)CC5)nc(N)n4)cc3C2)cn1 [Example 17, 5-{7-[2-Amino-6-(4-methylpiperazin-1-yl)pyrimidin-4-yl]-3,4-dihydroisoquinolin-2(1H)-yl}-N-methylpyridine-2-carboxamide]	0.199 µM
CN1CCN(c2cc(-c3ccc4c(c3)CN(C(=O)Nc3ccccc3F)CC4)nc(N)n2)CC1 [Example 99, 7-[2-Amino-6-(4-methylpiperazin-1-yl)pyrimidin-4-yl]-N-(2-fluorophenyl)-3,4-dihydroisoquinoline-2(1H)-carboxamide]	0.031 µM
COC(=O)c1cccc(COc2ccc3c(c2)C(NC(=O)c2ccc4c(N5CCN(C)CC5)nc(N)nc4c2)CCC3)c1 (centres unmarked) [Example 204, Methyl 3-((8-(2-amino-4-(4-methylpiperazin-1-yl)quinazoline-7-carboxamido)-5,6,7,8-tetrahydronaphthalen-2-yloxy)methyl)benzoate]	0.0093 µM
